Assays:
RAW264.7 [1] = experiment: Antiinflammatory activity in mouse RAW264.7 cells assessed as inhibition of LPS-induced NO production incubated for 2 hrs prior to LPS-challenge measured after 24 hrs by Greiss assay; type: functional, cell-based
RAW264.7 [2] = experiment: Cytotoxicity against mouse RAW264.7 cells assessed as cell viability up to 100 uM; type: cell-based

IC50 (RAW264.7 [1]) | Compound | Activity (RAW264.7 [2])
39.2 µM | CNC(=N)NCCC[C@H](N)C(=O)O [TILARGININE] | Non-toxic
27.3 µM | CC(C)=CCC[C@]1(C)[C@@H](CC=C(C)C)C[C@]2(C)C(=O)C3=C(O[C@@H](C(C)(C)O)C3)[C@@]1(C(=O)C(C)C)C2=O | Non-toxic
14.5 µM | CC[C@H](C)C(=O)[C@]12C(=O)[C@](C)(C[C@H](CC=C(C)C)[C@@]1(C)CCC=C(C)C)C(=O)C1=C2O[C@@H](C(C)(C)O)C1 | Non-toxic
9.5 µM | CC(C)=CCC[C@]1(C)[C@@H](CC=C(C)C)C[C@@]2(C)C(=O)[C@]1(C(=O)C(C)C)C(=O)C1=C2O[C@H](C(C)(C)O)C1 | Non-toxic
14.9 µM | CC(C)=CCC[C@]1(C)[C@@H](CC=C(C)C)C[C@@]2(C)C(=O)[C@]1(C(=O)C(C)C)C(=O)C1=C2O[C@@H](C(C)(C)O)C1 | Non-toxic
15.2 µM | CC[C@H](C)C(=O)[C@@]12C(=O)C3=C(O[C@@H](C(C)(C)O)C3)[C@@](C)(C[C@H](CC=C(C)C)[C@@]1(C)CCC=C(C)C)C2=O | Non-toxic
23.7 µM | CC[C@H](C)C(=O)[C@]12C(=O)[C@](C)(C[C@H](CC=C(C)C)[C@@]1(C)CCC=C(C)C)C(=O)C1=C2O[C@H](C(C)(C)O)C1 | Non-toxic
18.7 µM | CC[C@H](C)C(=O)[C@@]12C(=O)C3=C(O[C@H](C(C)(C)O)C3)[C@@](C)(C[C@H](CC=C(C)C)[C@@]1(C)CCC=C(C)C)C2=O | Non-toxic
> 50 µM | CC(C)=CCC[C@]1(C)[C@@H](CC=C(C)C)C[C@]2(C)C(=O)C3=C(O[C@H](C(C)(C)O)C3)[C@@]1(C(=O)C(C)C)C2=O | Non-toxic
